Measured values taken from patent US20240150297A1, “NOVEL COMPOUNDS COMPRISING A NEW CLASS OF TRANSTHYRETIN LIGANDS FOR TREATMENT OF COMMON AGE-RELATED COMORBIDITIES” (The Trustees of Columbia University in the City of New York, priority 2021, published 2024).
Read-outs that look alike come from different tables or passages of the source. Blank lines part the entries; values can stand above or below the compound they belong to.

Experiments:
[1] = target: native RBP4 purified from human urine (Homo sapiens (Human), UniProt P02753); test: RBP4 scintillation proximity (SPA) binding assay; conditions: read-out: RBP4 SPA IC50; fixed 10 nM 3H-retinol
Kinetic solubility assay = type: physicochemical; conditions: PBS pH 7.4
CYP2C9 = CYP2C9 (Homo sapiens (Human), UniProt P11712); test: CYP450 inhibition assay, CYP2C9; type: in vitro ADME
CYP2C19 = CYP2C19 (Homo sapiens (Human), UniProt P33261); test: CYP450 inhibition assay, CYP2C19; type: in vitro ADME; conditions: pH 7.4, read-out: CYP Inhibition (% Inhibition at 10 μm) 2C19
[2] = target: peroxisome proliferator-activated receptor-gamma (PPARγ) receptor (Homo sapiens (Human), UniProt P37231); test: PPARγ activity
[3] = Plasma protein binding, human; type: in vitro ADME
Source text: The peak areas of the test compound in the buffer and test samples were used to calculate percent binding and recovery according to the following formulas:
Areap=Peak area of analyte in protein matrix Areab=Peak area of analyte in buffer Areac=Peak area of analyte in control sample

[4] = Metabolic stability and clearance in human liver microsomes; type: in vitro ADME
Experimental: (§1) The results of metabolic stability determinations for novel compounds and testosterone (positive control) were conducted in the presence of human, rat, mouse, and monkey liver microsomes. Values shown are percent of parent remaining after a 30 minute incubation. All measurements were done in duplicate. Assay results for testosterone were within an acceptable range.
(§2) Mixed-gender human liver microsomes (Lot# 1710084), male Sprague-Dawley rat liver microsomes (Lot# 1610290), male CD-1 mouse liver microsomes (Lot# 1710069), and male Cynomolgous liver microsomes (Lot# 1510193) were purchased from XenoTech. […]. The test article was added into the reaction mixture at a final concentration of 1 μM. The control compound, testosterone, was run simultaneously with the test article in a separate reaction. An aliquot of the reaction mixture (without cofactor) was equilibrated in a shaking water bath at 37° C. for 3 minutes. The reaction was initiated by the addition of cofactor, and the mixture was incubated in a shaking water bath at 37° C. Aliquots (100 μL) were withdrawn at 0, 10, 20, 30, and 60 minutes. Test article and testosterone samples were immediately combined with 400 μL of ice-cold 50/50 acetonitrile (ACN)/H2O containing 0.1% formic acid and internal standard to terminate the reaction. […] Half-lives were calculated using GraphPad software, fitting to a single-phase exponential decay equation.

[5] = Metabolic stability and clearance in rat liver microsomes; type: in vitro ADME
Experimental: as §1, §2

[6] = Metabolic stability and clearance in mouse liver microsomes; type: in vitro ADME
Experimental: as §1, §2

[7] = Metabolic stability and clearance in cynomolgus monkey liver microsomes; type: in vitro ADME
Experimental: as §1, §2

serum RBP4 = test: Serum RBP4 measurement after single oral dose in mice (PK-PD); type: in vivo, mouse
Experimental: FIG. 6. Pharmacokinetic and pharmacodynamic properties of 18a in mice. […]. Data are presented as means±SD. Three mice per treatment group were used in the PK-PD study.
Blood samples were collected from a tail vein. Whole blood was drawn into a centrifuge tube and was allowed to clot at room temperature for 30 minutes followed by centrifugation at 2000 g for 15 minutes at […] to collect serum. […] Whole blood was drawn into a centrifuge tube and was allowed to clot at room temperature for 30 min followed by centrifugation at 2000 g for 15 min at +4° C to collect serum.
There was no effect of compound dosing on serum TTR levels (data not shown). […].

CYP2D6 = CYP2D6 (Homo sapiens (Human), UniProt P10635)
[8] = CD-1 mice
in vivo = conditions: male, CD-1, mouse
[9] = target: TTR isolated from human plasma (Homo sapiens (Human), UniProt P02766); test: Fluorescence polarization TTR tetramer binding assay; conditions: fixed 25 μM FITC-coupled TTR FP probe
human TTR = human TTR (Homo sapiens (Human), UniProt P02766); test: Low pH-induced TTR aggregation assay (SDS-PAGE/Western blot); type: biochemical; conditions: 50 μM compound, pH 4.0, 72 h, 37° C.
Experimental: FIG. 5. […]. Bar graphs represent pixel volume means±S.D. of the scanned bands on the immunoblots in arbitrary units for TTR high-molecular-weight aggregates (B), dimers (C), and monomers (D). Statistical significance was determined by one-way ANOVA with Holm-Sidak post hoc test; *, p≤0.05**, p≤0.01***, p≤0.001; ****, p≤0.0001 compared to TTR aggregation+DMSO group (pH4.0) *, p=0.05, **, p≤0.01; ***, p≤0.001; ****, […] compare to TTR without aggregation group (pH=7.5).
The ability of test compounds to prevent TTR aggregation was evaluated under the acidic conditions that favor TTR aggregation and fibril formation. […] At the end of the incubation, 3.5 μl 500 mM sodium phosphate (Sigma #S5136) buffer (pH=8.0) was added to each sample for neutralization and 0.6 μl 5% CHAPS (Sigma #C5070) as a detergent to prevent reassociation of protein. The cross-linking was performed by adding 1.5 μl 5% glutaraldehyde solution (Sigma# G6257). After 4 min, the reaction was stopped by the addition of 2.5 μl freshly made 5% NaBH4. […] Band intensity for TTR monomer and TTR aggregates was quantified from scanned images of the blots.
The ability of TTR ligands to act as kinetic stabilizers of TTR tetramers was assessed in vitro using a low pH-induced TTR aggregation SDS-PAGE assay (Coelho, T. et al. 2016; Cruz, M. W. 2019). […]

[10] = 441 ATTR-CM patients; cited from earlier work

Sequence of peroxisome proliferator-activated receptor-gamma (PPARγ) receptor (P37231 whole entry, species assumed): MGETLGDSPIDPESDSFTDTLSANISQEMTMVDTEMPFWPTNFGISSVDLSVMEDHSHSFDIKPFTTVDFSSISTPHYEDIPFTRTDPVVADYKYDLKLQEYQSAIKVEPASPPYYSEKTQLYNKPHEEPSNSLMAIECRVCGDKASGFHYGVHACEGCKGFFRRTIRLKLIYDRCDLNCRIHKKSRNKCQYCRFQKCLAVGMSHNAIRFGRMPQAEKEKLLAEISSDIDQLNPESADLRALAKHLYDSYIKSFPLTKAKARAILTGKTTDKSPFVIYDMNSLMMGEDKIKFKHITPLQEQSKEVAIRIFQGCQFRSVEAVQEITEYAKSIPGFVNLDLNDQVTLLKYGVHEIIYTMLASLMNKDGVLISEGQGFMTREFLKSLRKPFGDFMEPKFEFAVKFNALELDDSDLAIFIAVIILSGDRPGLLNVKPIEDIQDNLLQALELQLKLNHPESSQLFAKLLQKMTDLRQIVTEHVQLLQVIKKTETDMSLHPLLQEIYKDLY
Sequence of CYP2C19 (P33261 whole entry): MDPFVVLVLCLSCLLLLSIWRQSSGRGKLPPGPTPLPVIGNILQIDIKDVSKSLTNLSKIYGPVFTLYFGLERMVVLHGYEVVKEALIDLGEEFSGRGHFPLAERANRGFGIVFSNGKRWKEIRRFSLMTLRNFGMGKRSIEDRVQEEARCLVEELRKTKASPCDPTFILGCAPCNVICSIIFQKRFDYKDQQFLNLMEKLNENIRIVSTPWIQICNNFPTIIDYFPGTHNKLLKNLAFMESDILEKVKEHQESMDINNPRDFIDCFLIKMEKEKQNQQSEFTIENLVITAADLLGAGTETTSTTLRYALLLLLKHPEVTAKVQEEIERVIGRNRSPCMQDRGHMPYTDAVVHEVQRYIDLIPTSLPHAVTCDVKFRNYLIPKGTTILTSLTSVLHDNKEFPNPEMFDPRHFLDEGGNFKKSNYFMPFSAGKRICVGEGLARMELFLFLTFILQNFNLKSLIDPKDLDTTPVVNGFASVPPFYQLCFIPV
Sequence of CYP2C9 (P11712 whole entry): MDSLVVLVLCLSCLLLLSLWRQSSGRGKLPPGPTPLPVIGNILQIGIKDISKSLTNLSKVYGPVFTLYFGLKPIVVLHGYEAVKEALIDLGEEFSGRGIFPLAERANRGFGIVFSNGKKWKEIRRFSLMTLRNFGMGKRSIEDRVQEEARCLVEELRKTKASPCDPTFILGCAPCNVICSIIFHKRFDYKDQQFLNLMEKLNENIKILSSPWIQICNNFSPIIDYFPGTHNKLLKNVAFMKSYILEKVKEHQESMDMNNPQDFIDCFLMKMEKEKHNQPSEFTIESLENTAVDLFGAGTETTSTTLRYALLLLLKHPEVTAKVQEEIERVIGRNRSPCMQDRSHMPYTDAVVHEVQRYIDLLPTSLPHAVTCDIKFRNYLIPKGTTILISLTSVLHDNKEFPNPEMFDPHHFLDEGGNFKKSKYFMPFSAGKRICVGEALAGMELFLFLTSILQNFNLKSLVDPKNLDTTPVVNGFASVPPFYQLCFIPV
Sequence of CYP2D6 (P10635 whole entry): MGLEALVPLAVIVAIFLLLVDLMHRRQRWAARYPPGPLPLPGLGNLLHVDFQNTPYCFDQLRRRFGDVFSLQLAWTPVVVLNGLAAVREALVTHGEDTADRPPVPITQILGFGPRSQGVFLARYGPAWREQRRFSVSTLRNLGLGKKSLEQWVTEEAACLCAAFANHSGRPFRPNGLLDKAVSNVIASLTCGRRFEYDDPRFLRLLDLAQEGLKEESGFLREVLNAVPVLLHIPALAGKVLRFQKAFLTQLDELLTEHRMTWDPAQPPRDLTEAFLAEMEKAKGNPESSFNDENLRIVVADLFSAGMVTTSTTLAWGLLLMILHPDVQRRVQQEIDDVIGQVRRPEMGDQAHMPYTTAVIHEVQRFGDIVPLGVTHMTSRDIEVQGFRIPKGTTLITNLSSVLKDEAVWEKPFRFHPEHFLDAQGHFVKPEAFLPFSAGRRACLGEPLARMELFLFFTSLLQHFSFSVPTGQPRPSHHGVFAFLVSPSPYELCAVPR

Compound: Cc1n[nH]c(C)c1N1CCN(c2cc(C(=O)O)ccc2C(F)(F)F)CC1 [Compound 18e, 3-(4-(3,5-Dimethyl-1H-pyrazol-4-yl)piperazin-1-yl)-4-(trifluoromethyl)benzoic Acid]
IC50 [1]: > 3000 nM

Compound: Cc1n[nH]c(C)c1CCCOc1cc(C(=O)O)ccc1F [AG10 (4), AG10, reference compound]
IC50 [1]: > 30000 nM

Compound: Cc1n[nH]c(C)c1N1CCN(c2cc(F)cc(C(=O)O)c2)CC1 [Compound 18i, 3-(4-(3,5-Dimethyl-1H-pyrazol-4-yl)piperazin-1-yl)-5-fluorobenzoic Acid]
IC50 [1]: > 3000 nM

Compound: Cc1n[nH]c(C)c1N1CCN(c2ccc(F)c(C(=O)O)c2)CC1 [Compound 18h, 5-(4-(3,5-Dimethyl-1H-pyrazol-4-yl)piperazin-1-yl)-2-fluorobenzoic Acid]
IC50 [1]: > 3000 nM

Compound: Cc1n[nH]c(C)c1N1CCN(c2cc(C(=O)O)ccc2Cl)CC1 [Compound 18f, 4-Chloro-3-(4-(3,5-dimethyl-1H-pyrazol-4-yl)piperazin-1-yl)benzoic Acid]
IC50 [1]: > 3000 nM

Compound: Cc1cc(F)c(N2CCN(c3c(C)n[nH]c3C)CC2)cc1C(=O)O [Compound 18j, 5-(4-(3,5-Dimethyl-1H-pyrazol-4-yl)piperazin-1-yl)-4-fluoro-2-methylbenzoic Acid]
IC50 [1]: > 3000 nM

Compound: Cc1n[nH]c(C)c1N1CCN(c2cccc(C(=O)O)c2F)CC1 [Compound 18g, 3-(4-(3,5-Dimethyl-1H-pyrazol-4-yl)piperazin-1-yl)-2-fluorobenzoic Acid]
IC50 [1]: > 3000 nM

Compound: Cc1noc(C)c1N1CCN(c2cc(C(=O)O)ccc2F)CC1 [Compound 20, 3-(4-(3,5-Dimethylisoxazol-4-yl)piperazin-1-yl)-4-fluorobenzoic Acid]
IC50 [1]: > 3000 nM

Compound: Cc1n[nH]c(C)c1N1CCN(c2cc(-c3nn[nH]n3)ccc2F)CC1 [Compound 22, 1-(3,5-Dimethyl-1H-pyrazol-4-yl)-4-(2-fluoro-5-(2H-tetrazol-5-yl)phenyl)piperazine]
IC50 [1]: > 3000 nM

Compound: CC(=O)N1CCN(c2ccc(OCC3COC(Cn4ccnc4)(c4ccc(Cl)cc4Cl)O3)cc2)CC1 (stereo not shown) [Ketoconazole]
Kinetic solubility (Kinetic solubility assay): 152.8 µM

Kinetic solubility (Kinetic solubility assay): 7.0 µM
Compound: CC/C(=C(/CC)c1ccc(O)cc1)c1ccc(O)cc1 [Diethylstilbesterol]

Compound: Cc1n[nH]c(C)c1N1CCN(c2cc(C(=O)O)ccc2F)CC1 [Compound 18a, 3-(4-(3,5-Dimethyl-1H-pyrazol-4-yl)piperazin-1-yl)-4-fluorobenzoic Acid]
Kinetic solubility (Kinetic solubility assay): 184.5 µM
CYP Inhibition (% Inhibition at 10 μm) 2C9 (CYP2C9): 2C9 - 10.4%
inhibition at 10 µM (CYP2C19): 3.1%
EC50 [2]: > 100000 nM
% PPB human [3]: 83%
Liver Microsomal Stability (% remaining at 30 min) HLM ([4]; 30 minute incubation): 93%
microsomal CLint at 1 μM ([4]; both sexes, human liver microsomes): < 0.0231 µL/min/mg
Liver Microsomal Stability (% remaining at 30 min) RLM ([5]; 30 minute incubation): 98%
microsomal CLint at 1 μM ([5]; male, Sprague-Dawley, rat liver microsomes): < 0.0231 µL/min/mg
Liver Microsomal Stability (% remaining at 30 min) MLM ([6]; 30 minute incubation): 102%
microsomal CLint at 1 μM ([6]; male, CD-1, mouse liver microsomes): < 0.0231 µL/min/mg
Liver Microsomal Stability (% remaining at 30 min) cyno LM ([7]; 30 minute incubation): 94%
microsomal CLint at 1 μM ([7]; male, cynomolgus monkey liver microsomes, read-out: Microsomal CLint, cyno): < 0.0231 µL/min/mg
effect on serum TTR levels (serum RBP4; after compound dosing, data not shown): no effect
maximal reduction in serum RBP4 (serum RBP4; single 25 mg/kg oral dose, 2 h after administration): 66%
CYP Inhibition (% Inhibition at 10 μm) 2D6 (CYP2D6): 2D6 - 8.1%
AUCINF ([8]; IV 2 mg/kg): 6242 ng·h/mL
AUClast ([8]; IV 2 mg/kg): 6214 ng·h/mL
CL, total body clearance ([8]; IV 2 mg/kg): 5.9 mL/min/kg
Vss ([8]; IV 2 mg/kg): 2.18 L/kg
t1/2 ([8]; IV 2 mg/kg): 5.08 h
% F, oral bioavailability ([8]; PO 5 mg/kg vs IV 2 mg/kg): 103%
AUCINF ([8]; PO 5 mg/kg): 16073 ng·h/mL
AUClast ([8]; PO 5 mg/kg): 16040 ng·h/mL
t1/2 ([8]; PO 5 mg/kg): 5.38 h
clearance (in vivo; iv, 2 mg/kg): 5.9 mL/min/kg
half-life (in vivo; iv, 2 mg/kg): 5.08 h
AUC(0-inf) (in vivo; po, 5 mg/kg): 16100 ng·h/mL
Cmax (in vivo; po, 5 mg/kg): 1560 ng/mL

Compound: COc1ccc(C(=O)O)cc1N1CCN(c2c(C)n[nH]c2C)CC1 [Compound 18c, 3-(4-(3,5-Dimethyl-1H-pyrazol-4-yl)piperazin-1-yl)-4-methoxybenzoic Acid]
IC50 [9]: 300 nM
IC50 [1]: > 3000 nM

Compound: O=C(O)c1ccc2nc(-c3cc(Cl)cc(Cl)c3)oc2c1 [Tafamadis (3), tafamidis]
IC50 [1]: > 30000 nM
formation of high molecular weight forms of TTR (human TTR): significantly inhibited
reduction of rate of cardiovascular-related hospitalizations compared to placebo [10]: 32%
reduction of risk of death compared to placebo [10]: 30%

Compound: Cc1n[nH]c(C)c1N1CCN(c2cc(C(N)=O)ccc2F)CC1 [Compound 21, 3-(4-(3,5-Dimethyl-1H-pyrazol-4-yl)piperazin-1-yl)-4-fluorobenzamide]
IC50 [1]: > 3000 nM

Compound: Cc1ccc(C(=O)O)cc1N1CCN(c2c(C)n[nH]c2C)CC1 [Compound 18d, 3-(4-(3,5-Dimethyl-1H-pyrazol-4-yl)piperazin-1-yl)-4-methylbenzoic Acid]
IC50 [1]: > 3000 nM

Compound: Cc1n[nH]c(C)c1N1CCN(c2cccc(C(=O)O)c2)CC1 [Compound 18b, 3-(4-(3,5-Dimethyl-1H-pyrazol-4-yl)piperazin-1-yl)benzoic Acid]
IC50 [1]: > 30000 nM
